Measured values: ChEMBL document CHEMBL1671662, “In vitro activities of telavancin and six comparator agents against anaerobic bacterial isolates” (2009)
Converted amounts (≈) assume the structure as drawn.

Assays:
Clostridium bolteae = test: Antibacterial activity against Clostridium bolteae by CLSI M11-A6 agar dilution method; type: functional; conditions: Enterocloster bolteae
Clostridioides difficile = test: Antibacterial activity against Clostridium difficile by CLSI M11-A6 agar dilution method; type: functional
Clostridium hathewayi = test: Antibacterial activity against Clostridium hathewayi by CLSI M11-A6 agar dilution method; type: functional; conditions: Hungatella hathewayi
Thomasclavelia ramosa = test: Antibacterial activity against Clostridium ramosum by CLSI M11-A6 agar dilution method; type: functional
Clostridium subterminale = test: Antibacterial activity against Clostridium subterminale by CLSI M11-A6 agar dilution method; type: functional
Clostridium disporicum = test: Antibacterial activity against Clostridium disporicum by CLSI M11-A6 agar dilution method; type: functional
Clostridium = test: Antibacterial activity against Clostridium hypermegas by CLSI M11-A6 agar dilution method; type: functional
[1] = tested on: Clostridium paraputrificum; test: Antibacterial activity against Clostridium paraputrificum by CLSI M11-A6 agar dilution method; type: functional
Clostridium sporogenes = test: Antibacterial activity against Clostridium sporogenes by CLSI M11-A6 agar dilution method; type: functional
[2] = tested on: Clostridium sporosphaeroides; test: Antibacterial activity against Clostridium sporosphaeroides by CLSI M11-A6 agar dilution method; type: functional; conditions: Faecalispora sporosphaeroides
Clostridium sp. = test: Antibacterial activity against Clostridium sp. by CLSI M11-A6 agar dilution method; type: functional
Actinomyces naeslundii = test: Antibacterial activity against Actinomyces naeslundii by CLSI M11-A6 agar dilution method; type: functional
[3] = tested on: Bifidobacterium adolescentis; test: Antibacterial activity against Bifidobacterium adolescentis by CLSI M11-A6 agar dilution method; type: functional
[4] = Antibacterial activity against Bifidobacterium infantis by CLSI M11-A6 agar dilution method; type: functional, Bifidobacterium longum subsp. infantis; conditions: Bifidobacterium longum
[5] = tested on: Bifidobacterium pseudolongum; test: Antibacterial activity against Bifidobacterium pseudolongum by CLSI M11-A6 agar dilution method; type: functional
Collinsella aerofaciens = test: Antibacterial activity against Colinsella aerofaciens by CLSI M11-A6 agar dilution method; type: functional
[6] = tested on: Coprobacillus cateniformis; test: Antibacterial activity against Coprobacillus cateniformis by CLSI M11-A6 agar dilution method; type: functional
Coriobacterium = test: Antibacterial activity against […] by CLSI M11-A6 agar dilution method; type: functional
Eggerthella lenta = test: Antibacterial activity against Eggerthella lenta by CLSI M11-A6 agar dilution method; type: functional
Holdemania filiformis = test: Antibacterial activity against Holdemania filiformis by CLSI M11-A6 agar dilution method; type: functional
Ruminococcus obeum = test: Antibacterial activity against Ruminococcus obeum by CLSI M11-A6 agar dilution method; type: functional; conditions: Blautia obeum
Ruminococcus albus = test: Antibacterial activity against Ruminococcus albus by CLSI M11-A6 agar dilution method; type: functional; conditions: Hominimerdicola alba
Blautia luti = test: Antibacterial activity against Ruminococcus luti by CLSI M11-A6 agar dilution method; type: functional
Blautia producta = test: Antibacterial activity against Ruminococcus productus by CLSI M11-A6 agar dilution method; type: functional
Anaerococcus prevotii = test: Antibacterial activity against Anaerococcus prevotii by CLSI M11-A6 agar dilution method; type: functional
Finegoldia magna = test: Antibacterial activity against Finegoldia magna by CLSI M11-A6 agar dilution method; type: functional
Streptococcus anginosus = test: Antibacterial activity against Streptococcus anginosus by CLSI M11-A6 agar dilution method; type: functional
[7] = tested on: Parabacteroides distasonis; test: Antibacterial activity against Parabacteroides distasonis by CLSI M11-A6 agar dilution method; type: functional
Bacteroides ovatus = test: Antibacterial activity against Bacteroides ovatus by CLSI M11-A6 agar dilution method; type: functional
Fusobacterium mortiferum = test: Antibacterial activity against Fusobacterium mortiferum by CLSI M11-A6 agar dilution method; type: functional
Fusobacterium varium = test: Antibacterial activity against Fusobacterium varium by CLSI M11-A6 agar dilution method; type: functional
Prevotella bivia = test: Antibacterial activity against Prevotella bivia by CLSI M11-A6 agar dilution method; type: functional
Prevotella denticola = test: Antibacterial activity against Prevotella P denticola by CLSI M11-A6 agar dilution method; type: functional
Prevotella intermedia = test: Antibacterial activity against Prevotella P intermedia by CLSI M11-A6 agar dilution method; type: functional
Prevotella nigrescens = test: Antibacterial activity against Prevotella nigrescens by CLSI M11-A6 agar dilution method; type: functional
Hoylesella loescheii = test: Antibacterial activity against Prevotella loescheii by CLSI M11-A6 agar dilution method; type: functional
Hoylesella oralis = test: Antibacterial activity against Prevotella oralis by CLSI M11-A6 agar dilution method; type: functional
Prevotella oris = test: Antibacterial activity against Prevotella oris by CLSI M11-A6 agar dilution method; type: functional; conditions: Segatella oris
[8] = tested on: Sutterella wadsworthensis; test: Antibacterial activity against Sutterella wadsworthensis by CLSI M11-A6 agar dilution method; type: functional

Structure (SMILES): CCCCCCCCCCNCCN[C@@]1(C)C[C@H](O[C@H]2[C@H](Oc3c4cc5cc3Oc3ccc(cc3Cl)[C@@H](O)[C@@H](NC(=O)[C@@H](CC(C)C)NC)C(=O)N[C@@H](CC(N)=O)C(=O)N[C@H]5C(=O)N[C@H]3C(=O)N[C@H](C(=O)N[C@H](C(=O)O)c5cc(O)c(CNCP(=O)(O)O)c(O)c5-c5cc3ccc5O)[C@H](O)c3ccc(c(Cl)c3)O4)O[C@H](CO)[C@@H](O)[C@@H]2O)O[C@@H](C)[C@H]1O [TELAVANCIN]
- MIC50 (Clostridium bolteae): 4 µg/mL (≈ 2.28 µM)
- MIC90 (Clostridium bolteae): 8 µg/mL (≈ 4.56 µM)
- MIC50 (Clostridioides difficile): 0.25 µg/mL (≈ 0.142 µM)
- MIC90 (Clostridioides difficile): 0.25 µg/mL (≈ 0.142 µM)
- MIC50 (Clostridium hathewayi): 0.5 µg/mL (≈ 0.285 µM)
- MIC90 (Clostridium hathewayi): 1 µg/mL (≈ 0.57 µM)
- MIC (Thomasclavelia ramosa): 0.25 µg/mL (≈ 0.142 µM)
- MIC50 (Thomasclavelia ramosa): 0.25 µg/mL (≈ 0.142 µM)
- MIC90 (Thomasclavelia ramosa): 0.25 µg/mL (≈ 0.142 µM)
- MIC (Clostridium subterminale): ≤ 0.12 µg/mL
- MIC50 (Clostridium subterminale): ≤ 0.12 µg/mL
- MIC90 (Clostridium subterminale): ≤ 0.12 µg/mL
- MIC50 (Clostridium disporicum): ≤ 0.12 µg/mL
- MIC90 (Clostridium disporicum): 0.25 µg/mL (≈ 0.142 µM)
- MIC50 (Clostridium): ≤ 0.12 µg/mL
- MIC90 (Clostridium): 0.25 µg/mL (≈ 0.142 µM)
- MIC50 [1]: ≤ 0.12 µg/mL
- MIC90 [1]: 0.25 µg/mL (≈ 0.142 µM)
- MIC50 (Clostridium sporogenes): ≤ 0.12 µg/mL
- MIC90 (Clostridium sporogenes): 0.25 µg/mL (≈ 0.142 µM)
- MIC50 [2]: ≤ 0.12 µg/mL
- MIC90 [2]: 0.25 µg/mL (≈ 0.142 µM)
- MIC50 (Clostridium sp.): ≤ 0.12 µg/mL
- MIC90 (Clostridium sp.): 0.25 µg/mL (≈ 0.142 µM)
- MIC50 (Actinomyces naeslundii): ≤ 0.12 µg/mL
- MIC90 (Actinomyces naeslundii): 0.5 µg/mL (≈ 0.285 µM)
- MIC50 [3]: ≤ 0.12 µg/mL
- MIC90 [3]: 0.5 µg/mL (≈ 0.285 µM)
- MIC50 [4]: ≤ 0.12 µg/mL
- MIC90 [4]: 0.5 µg/mL (≈ 0.285 µM)
- MIC50 [5]: ≤ 0.12 µg/mL
- MIC90 [5]: 0.5 µg/mL (≈ 0.285 µM)
- MIC50 (Collinsella aerofaciens): ≤ 0.12 µg/mL
- MIC90 (Collinsella aerofaciens): 0.5 µg/mL (≈ 0.285 µM)
- MIC50 [6]: ≤ 0.12 µg/mL
- MIC90 [6]: 0.5 µg/mL (≈ 0.285 µM)
- MIC50 (Coriobacterium): ≤ 0.12 µg/mL
- MIC90 (Coriobacterium): 0.5 µg/mL (≈ 0.285 µM)
- MIC50 (Eggerthella lenta): ≤ 0.12 µg/mL
- MIC90 (Eggerthella lenta): 0.5 µg/mL (≈ 0.285 µM)
- MIC50 (Holdemania filiformis): ≤ 0.12 µg/mL
- MIC90 (Holdemania filiformis): 0.5 µg/mL (≈ 0.285 µM)
- MIC (Ruminococcus obeum): ≤ 0.12 µg/mL
- MIC50 (Ruminococcus obeum): ≤ 0.12 µg/mL
- MIC90 (Ruminococcus obeum): ≤ 0.12 µg/mL
- MIC50 (Ruminococcus albus): ≤ 0.12 µg/mL
- MIC90 (Ruminococcus albus): ≤ 0.12 µg/mL
- MIC50 (Blautia luti): ≤ 0.12 µg/mL
- MIC90 (Blautia luti): ≤ 0.12 µg/mL
- MIC50 (Blautia producta): ≤ 0.12 µg/mL
- MIC90 (Blautia producta): ≤ 0.12 µg/mL
- MIC50 (Anaerococcus prevotii): ≤ 0.12 µg/mL
- MIC90 (Anaerococcus prevotii): 0.25 µg/mL (≈ 0.142 µM)
- MIC50 (Finegoldia magna): ≤ 0.12 µg/mL
- MIC90 (Finegoldia magna): 0.25 µg/mL (≈ 0.142 µM)
- MIC50 (Streptococcus anginosus): ≤ 0.12 µg/mL
- MIC90 (Streptococcus anginosus): ≤ 0.12 µg/mL
- MIC [7]: > 64 µg/mL
- MIC50 [7]: > 64 µg/mL
- MIC90 [7]: > 64 µg/mL
- MIC (Bacteroides ovatus): > 64 µg/mL
- MIC50 (Bacteroides ovatus): > 64 µg/mL
- MIC90 (Bacteroides ovatus): > 64 µg/mL
- MIC50 (Fusobacterium mortiferum): > 64 µg/mL
- MIC90 (Fusobacterium mortiferum): > 64 µg/mL
- MIC50 (Fusobacterium varium): > 64 µg/mL
- MIC90 (Fusobacterium varium): > 64 µg/mL
- MIC50 (Prevotella bivia): 8 µg/mL (≈ 4.56 µM)
- MIC90 (Prevotella bivia): 64 µg/mL (≈ 36.5 µM)
- MIC50 (Prevotella denticola): 8 µg/mL (≈ 4.56 µM)
- MIC90 (Prevotella denticola): 64 µg/mL (≈ 36.5 µM)
- MIC50 (Prevotella intermedia): 8 µg/mL (≈ 4.56 µM)
- MIC90 (Prevotella intermedia): 64 µg/mL (≈ 36.5 µM)
- MIC50 (Prevotella nigrescens): 8 µg/mL (≈ 4.56 µM)
- MIC90 (Prevotella nigrescens): 64 µg/mL (≈ 36.5 µM)
- MIC50 (Hoylesella loescheii): 8 µg/mL (≈ 4.56 µM)
- MIC90 (Hoylesella loescheii): 64 µg/mL (≈ 36.5 µM)
- MIC50 (Hoylesella oralis): 8 µg/mL (≈ 4.56 µM)
- MIC90 (Hoylesella oralis): 64 µg/mL (≈ 36.5 µM)
- MIC50 (Prevotella oris): 8 µg/mL (≈ 4.56 µM)
- MIC90 (Prevotella oris): 64 µg/mL (≈ 36.5 µM)
- MIC [8]: > 64 µg/mL
- MIC50 [8]: > 64 µg/mL
- MIC90 [8]: > 64 µg/mL
